# Laboratory results taken from the NIST ThermoML archive (doi:10.1021/je060033f).
# ± gives the expanded uncertainty stated by the source.
# Test: activity coefficient (dimensionless); of the first substance listed, at infinite dilution; xn = mol fraction of the nth substance listed
# Conditions: 323.15 K; 101 kPa; Liquid; Chromatography; x1 = 0
row,SMILES,activity coefficient
1,"Cc1ccccc1C [1,2-dimethylbenzene] + C=CC[n+]1ccn(CCCCCCCC)c1.[Br-]",2.39 ± 0.16
2,"Cc1ccccc1C [1,2-dimethylbenzene] + C=CC[n+]1ccn(CCCCCCCCCC)c1.[Br-]",2.34 ± 0.16
3,"Cc1ccccc1C [1,2-dimethylbenzene] + C=CC[n+]1ccn(CCCCCCCCCCCC)c1.[Br-]",1.66 ± 0.11
4,"Cc1ccccc1C [1,2-dimethylbenzene] + C=CCn1cc[n+](C)c1.[Br-]",8.98 ± 0.61
5,"Cc1ccccc1C [1,2-dimethylbenzene] + CCCCCCCCCCCC[n+]1ccn(CCCB(O)O)c1.[Br-]",1.78 ± 0.12
6,"Cc1ccccc1C [1,2-dimethylbenzene] + CCCCCCCCCC[n+]1ccn(CCCB(O)O)c1.[Br-]",1.89 ± 0.13
7,"Cc1ccccc1C [1,2-dimethylbenzene] + CCCCCCCC[n+]1ccn(CCCB(O)O)c1.[Br-]",3.11 ± 0.21
8,"Cc1ccccc1C [1,2-dimethylbenzene] + C[n+]1ccn(CCCB(O)O)c1.[Br-]",44 ± 3
9,"Cc1cccc(C)c1 [1,3-dimethylbenzene] + C=CC[n+]1ccn(CCCCCCCC)c1.[Br-]",2.73 ± 0.19
10,"Cc1cccc(C)c1 [1,3-dimethylbenzene] + C=CC[n+]1ccn(CCCCCCCCCC)c1.[Br-]",2.73 ± 0.19
11,"Cc1cccc(C)c1 [1,3-dimethylbenzene] + C=CC[n+]1ccn(CCCCCCCCCCCC)c1.[Br-]",1.85 ± 0.12
12,"Cc1cccc(C)c1 [1,3-dimethylbenzene] + C=CCn1cc[n+](C)c1.[Br-]",11.1 ± 0.76
13,"Cc1cccc(C)c1 [1,3-dimethylbenzene] + CCCCCCCCCCCC[n+]1ccn(CCCB(O)O)c1.[Br-]",1.98 ± 0.13
14,"Cc1cccc(C)c1 [1,3-dimethylbenzene] + CCCCCCCCCC[n+]1ccn(CCCB(O)O)c1.[Br-]",2.11 ± 0.14
15,"Cc1cccc(C)c1 [1,3-dimethylbenzene] + CCCCCCCC[n+]1ccn(CCCB(O)O)c1.[Br-]",3.57 ± 0.24
16,"Cc1cccc(C)c1 [1,3-dimethylbenzene] + C[n+]1ccn(CCCB(O)O)c1.[Br-]",48.1 ± 3.3
17,"C1COCCO1 [1,4-dioxane] + C=CC[n+]1ccn(CCCCCCCC)c1.[Br-]",1.52 ± 0.1
18,"C1COCCO1 [1,4-dioxane] + C=CC[n+]1ccn(CCCCCCCCCC)c1.[Br-]",1.39 ± 0.09
19,"C1COCCO1 [1,4-dioxane] + C=CC[n+]1ccn(CCCCCCCCCCCC)c1.[Br-]",1.3 ± 0.08
20,"C1COCCO1 [1,4-dioxane] + C=CCn1cc[n+](C)c1.[Br-]",1.59 ± 0.11
21,"C1COCCO1 [1,4-dioxane] + CCCCCCCCCCCC[n+]1ccn(CCCB(O)O)c1.[Br-]",1.32 ± 0.09

row,SMILES,activity coefficient
1,"C1COCCO1 [1,4-dioxane] + CCCCCCCCCC[n+]1ccn(CCCB(O)O)c1.[Br-]",1.38 ± 0.09
2,"C1COCCO1 [1,4-dioxane] + CCCCCCCC[n+]1ccn(CCCB(O)O)c1.[Br-]",1.78 ± 0.12
3,"C1COCCO1 [1,4-dioxane] + C[n+]1ccn(CCCB(O)O)c1.[Br-]",11.2 ± 0.77
4,C#CCCCCC [1-heptyne] + C=CC[n+]1ccn(CCCCCCCC)c1.[Br-],2.56 ± 0.17
5,C#CCCCCC [1-heptyne] + C=CC[n+]1ccn(CCCCCCCCCC)c1.[Br-],2.58 ± 0.18
6,C#CCCCCC [1-heptyne] + C=CC[n+]1ccn(CCCCCCCCCCCC)c1.[Br-],1.87 ± 0.13
7,C#CCCCCC [1-heptyne] + C=CCn1cc[n+](C)c1.[Br-],13.2 ± 0.9
8,C#CCCCCC [1-heptyne] + CCCCCCCCCCCC[n+]1ccn(CCCB(O)O)c1.[Br-],2.2 ± 0.15
9,C#CCCCCC [1-heptyne] + CCCCCCCCCC[n+]1ccn(CCCB(O)O)c1.[Br-],2.22 ± 0.15
10,C#CCCCCC [1-heptyne] + CCCCCCCC[n+]1ccn(CCCB(O)O)c1.[Br-],3.7 ± 0.25
11,C#CCCCCC [1-heptyne] + C[n+]1ccn(CCCB(O)O)c1.[Br-],42.9 ± 2.9
12,C#CCCCC [1-hexyne] + C=CC[n+]1ccn(CCCCCCCC)c1.[Br-],2.04 ± 0.14
13,C#CCCCC [1-hexyne] + C=CC[n+]1ccn(CCCCCCCCCC)c1.[Br-],2.02 ± 0.14
14,C#CCCCC [1-hexyne] + C=CC[n+]1ccn(CCCCCCCCCCCC)c1.[Br-],1.56 ± 0.1
15,C#CCCCC [1-hexyne] + C=CCn1cc[n+](C)c1.[Br-],8.27 ± 0.56
16,C#CCCCC [1-hexyne] + CCCCCCCCCCCC[n+]1ccn(CCCB(O)O)c1.[Br-],1.86 ± 0.13
17,C#CCCCC [1-hexyne] + CCCCCCCCCC[n+]1ccn(CCCB(O)O)c1.[Br-],1.77 ± 0.12
18,C#CCCCC [1-hexyne] + CCCCCCCC[n+]1ccn(CCCB(O)O)c1.[Br-],2.77 ± 0.19
19,CCC[N+](=O)[O-] [1-nitropropane] + C=CC[n+]1ccn(CCCCCCCC)c1.[Br-],1.23 ± 0.08
20,CCC[N+](=O)[O-] [1-nitropropane] + C=CC[n+]1ccn(CCCCCCCCCC)c1.[Br-],1.14 ± 0.07
21,CCC[N+](=O)[O-] [1-nitropropane] + C=CC[n+]1ccn(CCCCCCCCCCCC)c1.[Br-],1.12 ± 0.07
